Measured values taken from patent publication US6525001B1, “Substituted pyrimidine and pyridine herbicides” (Mid-American Commercialization Corporation, priority 1997, dated 2003).

How the values were obtained:
Assay in all cases: Test B pre-/postemergence
Type in all cases: in vivo
Design in all cases: key: 0 is no effect; 10 is complete control
[1] = system: bedstraw (Galium aparine)
Procedure, shortened: (§1)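 Scored visually 0 (none) to 10 (complete control) against untreated plants after twelve to sixteen greenhouse days. Test chemicals, formulated in surfactant-containing non-phytotoxic solvent, applied to soil after planting and, separately, onto 1- to 4-leaf (2–18 cm) plants.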

soybean (Glycine max) = system: soybean (Glycine max)
Procedure, shortened: as §1

[2] = system: sugar beet (Beta vulgaris)
Procedure, shortened: as §1

[3] = system: cocklebur (Xanthium strumarium)
Procedure, shortened: as §1

[4] = system: broadleaf signalgrass (Brachiaria decumbens)
Procedure, shortened: as §1

[5] = system: wheat (Triticum aestivum)
Procedure, shortened: as §1

[6] = system: momingglory (Ipomoea hederacea)
Procedure, shortened: as §1

[7] = system: crabgrass (Digitaria sanguinalis)
Procedure, shortened: as §1

[8] = system: blackgrass (Alopecurus myosuroides)
Procedure, shortened: as §1

corn (Zea mays) = system: corn (Zea mays)
Procedure, shortened: as §1

rape (Brassica napus) = system: rape (Brassica napus)
Procedure, shortened: as §1

[9] = system: velvetleaf (Abutilon theophrasti)
Procedure, shortened: as §1

[10] = system: pigweed (Amaranthus retroflexus)
Procedure, shortened: as §1

wild oat (Avena fatua) = system: wild oat (Avena fatua)
Procedure, shortened: as §1

[11] = Preemergence, Rate 62 g/ha, scale of 0 to 10

## Cc1cnc(-c2ccc(C(F)(F)F)cc2)nc1C(=O)c1ccc(C(F)(F)F)cc1 [Compound 74]
[1]; [11]
  Plant response rating, Bedstraw: 0
[1]; Rate 62 g/ha, Postemergence
  Bedstraw plant response rating: 1
[1]; Rate 125 g/ha, Postemergence
  Bedstraw plant response rating: 1
[1]; Rate 125 g/ha, Preemergence
  Plant response rating, Bedstraw: 0
[1]; Rate 250 g/ha, Postemergence
  Plant response rating, Bedstraw: 2
[1]; Rate 250 g/ha, Preemergence
  Plant response rating, Bedstraw: 0
[1]; Rate 500 g/ha, Postemergence
  Plant response rating, Bedstraw: 6
[1]; Rate 500 g/ha, Preemergence
  Plant response rating, Bedstraw: 0
Soybean (Glycine max); [11]
  Plant response rating, Soybean: 0
Soybean (Glycine max); Rate 62 g/ha, Postemergence
  Soybean plant response rating: 2
Soybean (Glycine max); Rate 125 g/ha, Postemergence
  Soybean plant response rating: 2
Soybean (Glycine max); Rate 125 g/ha, Preemergence
  Plant response rating, Soybean: 0
Soybean (Glycine max); Rate 250 g/ha, Postemergence
  Plant response rating, Soybean: 2
Soybean (Glycine max); Rate 250 g/ha, Preemergence
  Plant response rating, Soybean: 0
Soybean (Glycine max); Rate 500 g/ha, Postemergence
  Plant response rating, Soybean: 3
Soybean (Glycine max); Rate 500 g/ha, Preemergence
  Plant response rating, Soybean: 0
[2]; [11]
  Plant response rating, Sugarbeets: 0
[2]; Rate 62 g/ha, Postemergence
  Sugarbeets plant response rating: 1
[2]; Rate 125 g/ha, Postemergence
  Sugarbeets plant response rating: 2
[2]; Rate 125 g/ha, Preemergence
  Plant response rating, Sugarbeets: 0
[2]; Rate 250 g/ha, Postemergence
  Plant response rating, Sugarbeets: 6
[2]; Rate 250 g/ha, Preemergence
  Plant response rating, Sugarbeets: 0
[2]; Rate 500 g/ha, Postemergence
  Plant response rating, Sugarbeets: 7
[2]; Rate 500 g/ha, Preemergence
  Plant response rating, Sugarbeets: 0
[3]; [11]
  Plant response rating, Cocklebur: 0
[3]; Rate 62 g/ha, Postemergence
  Cocklebur plant response rating: 1
[3]; Rate 125 g/ha, Postemergence
  Cocklebur plant response rating: 5
[3]; Rate 125 g/ha, Preemergence
  Plant response rating, Cocklebur: 0
[3]; Rate 250 g/ha, Postemergence
  Plant response rating, Cocklebur: 5
[3]; Rate 250 g/ha, Preemergence
  Plant response rating, Cocklebur: 0
[3]; Rate 500 g/ha, Postemergence
  Plant response rating, Cocklebur: 5
[3]; Rate 500 g/ha, Preemergence
  Plant response rating, Cocklebur: 0
[4]; Rate 62 g/ha, Postemergence
  B. signalgrass plant response rating: 1
[4]; Rate 62 g/ha, Preemergence
  B. signalgrass plant response rating: 0
[4]; Rate 125 g/ha, Postemergence
  B. signalgrass plant response rating: 1
[4]; Rate 125 g/ha, Preemergence
  Plant response rating, B. signalgrass: 0
[4]; Rate 250 g/ha, Postemergence
  Plant response rating, B. signalgrass: 1
[4]; Rate 250 g/ha, Preemergence
  Plant response rating, B. signalgrass: 0
[4]; Rate 500 g/ha, Postemergence
  Plant response rating, B. signalgrass: 2
[4]; Rate 500 g/ha, Preemergence
  Plant response rating, B. signalgrass: 0
[5]; [11]
  Plant response rating, Wheat: 0
[5]; Rate 62 g/ha, Postemergence
  Wheat plant response rating: 1
[5]; Rate 125 g/ha, Postemergence
  Wheat plant response rating: 1
[5]; Rate 125 g/ha, Preemergence
  Plant response rating, Wheat: 0
[5]; Rate 250 g/ha, Postemergence
  Plant response rating, Wheat: 1
[5]; Rate 250 g/ha, Preemergence
  Plant response rating, Wheat: 0
[5]; Rate 500 g/ha, Postemergence
  Plant response rating, Wheat: 2
[5]; Rate 500 g/ha, Preemergence
  Plant response rating, Wheat: 0
[6]; [11]
  Plant response rating, Morningglory: 0
[6]; Rate 62 g/ha, Postemergence
  Morningglory plant response rating: 1
[6]; Rate 125 g/ha, Postemergence
  Morningglory plant response rating: 1
[6]; Rate 125 g/ha, Preemergence
  Plant response rating, Morningglory: 0
[6]; Rate 250 g/ha, Postemergence
  Plant response rating, Morningglory: 7
[6]; Rate 250 g/ha, Preemergence
  Plant response rating, Morningglory: 0
[6]; Rate 500 g/ha, Postemergence
  Plant response rating, Morningglory: 7
[6]; Rate 500 g/ha, Preemergence
  Plant response rating, Morningglory: 0
[7]; [11]
  Plant response rating, Crabgrass: 0
[7]; Rate 62 g/ha, Postemergence
  Crabgrass plant response rating: 0
[7]; Rate 125 g/ha, Postemergence
  Crabgrass plant response rating: 0
[7]; Rate 125 g/ha, Preemergence
  Plant response rating, Crabgrass: 0
[7]; Rate 250 g/ha, Postemergence
  Plant response rating, Crabgrass: 1
[7]; Rate 250 g/ha, Preemergence
  Plant response rating, Crabgrass: 0
[7]; Rate 500 g/ha, Postemergence
  Plant response rating, Crabgrass: 3
[7]; Rate 500 g/ha, Preemergence
  Plant response rating, Crabgrass: 1
[8]; [11]
  Plant response rating, Blackgrass: 0
[8]; Rate 62 g/ha, Postemergence
  Blackgrass plant response rating: 0
[8]; Rate 125 g/ha, Postemergence
  Blackgrass plant response rating: 0
[8]; Rate 125 g/ha, Preemergence
  Plant response rating, Blackgrass: 0
[8]; Rate 250 g/ha, Postemergence
  Plant response rating, Blackgrass: 0
[8]; Rate 250 g/ha, Preemergence
  Plant response rating, Blackgrass: 0
[8]; Rate 500 g/ha, Postemergence
  Plant response rating, Blackgrass: 1
[8]; Rate 500 g/ha, Preemergence
  Plant response rating, Blackgrass: 0
Corn (Zea mays); [11]
  Plant response rating, Corn: 0
Corn (Zea mays); Rate 62 g/ha, Postemergence
  Corn plant response rating: 1
Corn (Zea mays); Rate 125 g/ha, Postemergence
  Corn plant response rating: 1
Corn (Zea mays); Rate 125 g/ha, Preemergence
  Plant response rating, Corn: 0
Corn (Zea mays); Rate 250 g/ha, Postemergence
  Plant response rating, Corn: 1
Corn (Zea mays); Rate 250 g/ha, Preemergence
  Plant response rating, Corn: 0
Corn (Zea mays); Rate 500 g/ha, Postemergence
  Plant response rating, Corn: 1
Corn (Zea mays); Rate 500 g/ha, Preemergence
  Plant response rating, Corn: 0
Rape (Brassica napus); [11]
  Plant response rating, Rape: 0
Rape (Brassica napus); Rate 62 g/ha, Postemergence
  Rape plant response rating: 1
Rape (Brassica napus); Rate 125 g/ha, Postemergence
  Rape plant response rating: 1
Rape (Brassica napus); Rate 125 g/ha, Preemergence
  Plant response rating, Rape: 0
Rape (Brassica napus); Rate 250 g/ha, Postemergence
  Plant response rating, Rape: 1
Rape (Brassica napus); Rate 250 g/ha, Preemergence
  Plant response rating, Rape: 0
Rape (Brassica napus); Rate 500 g/ha, Postemergence
  Plant response rating, Rape: 3
Rape (Brassica napus); Rate 500 g/ha, Preemergence
  Plant response rating, Rape: 0
[9]; [11]
  Plant response rating, Velvetleaf: 0
[9]; Rate 62 g/ha, Postemergence
  Velvetleaf plant response rating: 1
[9]; Rate 125 g/ha, Postemergence
  Velvetleaf plant response rating: 1
[9]; Rate 125 g/ha, Preemergence
  Plant response rating, Velvetleaf: 0
[9]; Rate 250 g/ha, Postemergence
  Plant response rating, Velvetleaf: 2
[9]; Rate 250 g/ha, Preemergence
  Plant response rating, Velvetleaf: 0
[9]; Rate 500 g/ha, Postemergence
  Plant response rating, Velvetleaf: 2
[9]; Rate 500 g/ha, Preemergence
  Plant response rating, Velvetleaf: 0
[10]; [11]
  Plant response rating, Redroot pigweed: 0
[10]; Rate 62 g/ha, Postemergence
  Redroot pigweed plant response rating: 2
[10]; Rate 125 g/ha, Postemergence
  Redroot pigweed plant response rating: 2
[10]; Rate 125 g/ha, Preemergence
  Plant response rating, Redroot pigweed: 0
[10]; Rate 250 g/ha, Postemergence
  Plant response rating, Redroot pigweed: 8
[10]; Rate 250 g/ha, Preemergence
  Plant response rating, Redroot pigweed: 0
[10]; Rate 500 g/ha, Postemergence
  Plant response rating, Redroot pigweed: 8
[10]; Rate 500 g/ha, Preemergence
  Plant response rating, Redroot pigweed: 0
Wild oat (Avena fatua); [11]
  Plant response rating, Wild oats: 0
Wild oat (Avena fatua); Rate 62 g/ha, Postemergence
  Wild oats plant response rating: 1
Wild oat (Avena fatua); Rate 125 g/ha, Postemergence
  Wild oats plant response rating: 1
Wild oat (Avena fatua); Rate 125 g/ha, Preemergence
  Plant response rating, Wild oats: 0
Wild oat (Avena fatua); Rate 250 g/ha, Postemergence
  Plant response rating, Wild oats: 1
Wild oat (Avena fatua); Rate 250 g/ha, Preemergence
  Plant response rating, Wild oats: 0
Wild oat (Avena fatua); Rate 500 g/ha, Postemergence
  Plant response rating, Wild oats: 1
Wild oat (Avena fatua); Rate 500 g/ha, Preemergence
  Plant response rating, Wild oats: 0
